Assay results: patent US20060223837A1 (priority 2005, published 2006)
Each block holds one compound with its values, some of them ahead of it.

Tests used:
[1] = target: T1, human VR1 (Homo sapiens, UniProt Q8NER1); assay: Human VR1 functional assay (FLIPR intracellular Ca2+); assay type: cell-based; conditions: for Emax at 12 µM / % Response Relative to EC80 of Capsaicin (12 μM) / Emax at 6 µM: agonist response; for Emax at 12 µM: read-out: % Response Relative to EC80 of Capsaicin (12 μM); for EC50: agonist-induced Ca2+ increase, read-out: h EC50; for IC50: antagonism of capsaicin-induced Ca2+ increase, read-out: h IC50; for inhibition at 5 µM: read-out: h % I (5 μM); for inhibition at 1 µM: read-out: h % I (1 μM); for Emax at 6 µM: read-out: % Response Relative to EC80 of Capsaicin (6 μM); for inhibition at 10 µM: read-out: h % I (10 μM)
T1 construct: expressed in transfected cells; host or cells: HEK293
Summary of the method: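 Read-out was Ca2+-dye fluorescence by FLIPR: compounds at varying concentrations were added to dye-loaded human VR1 HEK293 cells and monitored 5 min before capsaicin addition ([…], approx. EC80). Dose-response data, averaged over four wells, gave EC50 or IC50.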

[2] = target: T1, human VR1; assay: Human VR1 [3H]RTX binding assay; conditions: for inhibition at 1 µM / h Binding % I (1 μM): inhibition of [3H]RTX binding at 1 μM; for inhibition at 1 µM: read-out: h Binding % I (1 μM); for Ki: [3H]RTX binding, HEK293 membranes
Summary of the method: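 Inhibition of [3H]resiniferatoxin binding measured on HEK293-hVR1 membranes over 60 min at 37 C, pH 7.4 HEPES buffer containing BSA. Pellet radioactivity counted; 200 nM cold RTX gave nonspecific binding. % inhibition computed and Ki derived from duplicate measurements.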

[3] = inhibition of capsaicin response, 5 μM
[4] = inhibition of capsaicin response

T1 sequence (Q8NER1 whole entry): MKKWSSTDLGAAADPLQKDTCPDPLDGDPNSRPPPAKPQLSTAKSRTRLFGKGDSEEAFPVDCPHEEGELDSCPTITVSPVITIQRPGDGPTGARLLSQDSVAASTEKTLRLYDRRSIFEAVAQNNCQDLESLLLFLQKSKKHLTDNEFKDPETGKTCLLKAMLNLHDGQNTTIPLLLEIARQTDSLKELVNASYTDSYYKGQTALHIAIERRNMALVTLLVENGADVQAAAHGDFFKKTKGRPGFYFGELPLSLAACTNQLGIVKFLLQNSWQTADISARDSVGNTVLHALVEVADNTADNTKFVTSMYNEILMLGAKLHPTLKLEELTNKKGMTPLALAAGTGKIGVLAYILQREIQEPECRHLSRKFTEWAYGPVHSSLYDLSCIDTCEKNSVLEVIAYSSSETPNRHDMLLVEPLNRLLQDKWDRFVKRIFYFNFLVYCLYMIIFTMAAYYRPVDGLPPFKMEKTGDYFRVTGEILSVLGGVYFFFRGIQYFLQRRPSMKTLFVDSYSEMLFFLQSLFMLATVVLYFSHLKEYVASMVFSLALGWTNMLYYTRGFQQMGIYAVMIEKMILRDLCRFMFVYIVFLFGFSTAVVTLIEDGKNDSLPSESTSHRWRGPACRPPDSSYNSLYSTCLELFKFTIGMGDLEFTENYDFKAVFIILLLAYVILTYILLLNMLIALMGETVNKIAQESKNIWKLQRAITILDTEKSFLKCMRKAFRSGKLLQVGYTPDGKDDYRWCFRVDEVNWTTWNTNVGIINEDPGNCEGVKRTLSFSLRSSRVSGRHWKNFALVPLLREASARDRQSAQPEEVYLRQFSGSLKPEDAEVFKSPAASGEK

SMILES: Cc1cccc(-c2ccc(NC(=O)CCc3ccc(C(C)(C)C)cc3)cc2)c1 [Cpd 28]
% Response Relative to EC80 of Capsaicin (12 μM) [1]: 81%
h Binding % I (1 μM) [2]: 48%

SMILES: CC(C)(C)c1ccc(CCC(=O)Nc2cc(F)c(-c3ccncc3)c(F)c2)cc1 [Cpd 169]
Emax at 6 µM [1]: 45%
inhibition at 1 µM [1, 4]: 96%
Ki [2]: 0.048 µM

SMILES: CC(=O)Nc1cccc(-c2ccc(NC(=O)CCc3ccc(C(F)(F)F)cc3)c3ccccc23)c1 [Cpd 84]
h % I (5 μM) [1, 3]: 43%
h Binding % I (1 μM) [2]: 1%

SMILES: CC(=O)Nc1cccc(-c2ncc(NC(=O)CCc3ccc(C(C)(C)C)cc3)cc2C)c1 [Cpd 216]
IC50 [1]: 0.0762 µM
inhibition at 5 µM [1, 3]: 99%
Ki [2]: 0.0704 µM

SMILES: CN(C)C(=O)c1cccc(-c2cccc(NC(=O)CCc3ccc(C(C)(C)C)cc3)c2)c1 [Cpd 34]
h % I (10 μM) [1, 4]: 14%
h Binding % I (1 μM) [2]: 17%

SMILES: CC(C)(C)c1ccc(CCC(=O)Nc2ccc(-c3cccc(C(N)=O)c3)cc2)cc1 [Cpd 31, 4′-[3-(4-tert-butyl-phenyl)-propionylamino]-biphenyl-3-carboxylic acid amide]
inhibition at 10 µM [1, 4]: 28%
inhibition at 1 µM [2]: 4%

SMILES: CC(=O)Nc1cccc(-c2ccc(NC(=O)CCc3ccc(C(C)(C)C)cc3)c(CO)c2)c1 [Cpd 70]
h % I (10 μM) [1, 4]: 7%
h Binding % I (1 μM) [2]: 1%

SMILES: O=C(CCc1ccc(C(F)(F)F)cc1)Nc1ccc(-c2ccncc2)cc1 [Cpd 143]
% Response Relative to EC80 of Capsaicin (12 μM) [1]: 111%
h Binding % I (1 μM) [2]: 44%

SMILES: O=C(CCc1ccc(C(F)(F)F)cc1)Nc1cnc(-c2ccc(CO)cc2)c(C(F)(F)F)c1 [Cpd 225]
IC50 [1]: 0.152 µM
inhibition at 5 µM [1, 3]: 100%
Ki [2]: 0.162 µM

SMILES: O=C(CCc1ccc(C(F)(F)F)cc1)Nc1ccc(C2=NOS(=O)N2)c(C(F)(F)F)c1 (stereo not shown) [Cpd 245, N-[4-(2-Oxo-2,3-dihydro-2λ^4-[1,2,3,5]oxathiadiazol-4-yl)-3-trifluoromethyl-phenyl]-3-(4-trifluoromethyl-phenyl)-propionamide]
IC50 [1]: 0.491 µM
inhibition at 1 µM [1, 4]: 70%
inhibition at 5 µM [1, 3]: 9%
Ki [2]: 0.974 µM

SMILES: O=C(CCc1ccc(C(F)(F)F)cc1)Nc1ccc(-c2ccccc2O)cc1 [Cpd 76]
Emax at 12 µM [1]: 77%
Ki [2]: 0.421 µM
inhibition at 1 µM [2]: 50%

SMILES: O=C(CCc1ccc(C(F)(F)F)cc1)Nc1cnc(-c2cccc(O)c2)c(C(F)(F)F)c1 [Cpd 210, N-[6-(3-Hydroxy-phenyl)-5-trifluoromethyl-pyridin-3-yl]-3-(4-trifluoromethyl-phenyl)-propionamide]
IC50 [1]: 0.057 µM
inhibition at 5 µM [1, 3]: 100%
Ki [2]: 0.0545 µM

SMILES: CC(C)(C)c1ccc(CCC(=O)Nc2cccc(-c3ccccc3O)c2)cc1 [Cpd 9]
h % I (10 μM) [1, 4]: 16%
h Binding % I (1 μM) [2]: 1%

SMILES: Cc1cc(NC(=O)CCc2ccc(C(C)(C)C)cc2)cnc1-n1ccnc1 [Cpd 214]
IC50 [1]: 0.0732 µM
inhibition at 5 µM [1, 3]: 91%
Ki [2]: 0.536 µM

SMILES: Cc1cc(NC(=O)CCc2ccc(C(C)(C)C)cc2)ccc1-c1ccncc1 [Cpd 180]
Emax at 6 µM [1]: 96%
inhibition at 1 µM [1, 4]: 91%
Ki [2]: 0.042 µM

SMILES: CC(C)(C)c1ccc(CCC(=O)Nc2ccc(-c3ccc(O)cc3)cc2)cc1 [Cpd 3]
Emax at 12 µM [1]: 65%
inhibition at 10 µM [1, 4]: 44%
Ki [2]: 0.051 µM
inhibition at 1 µM [2]: 90%

Continued, values first:

Emax at 12 µM [1]: 94%
EC50 [1]: 1.42 µM
inhibition at 1 µM [2]: 2%
SMILES: CC(C)(C)c1ccc(CCC(=O)Nc2ccc(-c3cccc(C(=O)O)c3)cc2)cc1 [Cpd 30, 4′-[3-(4-tert-butyl-phenyl)-propionylamino]-biphenyl-3-carboxylic acid]

IC50 [1]: 0.147 µM
inhibition at 5 µM [1, 3]: 101%
Ki [2]: 0.0184 µM
SMILES: CC(C)(C)c1ccc(CCC(=O)Nc2cnc(-n3cnc(Cl)c3Cl)c(C(F)(F)F)c2)cc1 [Cpd 224]

IC50 [1]: 0.087 µM
inhibition at 1 µM [1, 4]: 101%
Ki [2]: 0.0477 µM
SMILES: O=C(/C=C/c1ccc(S(=O)(=O)C(F)(F)F)cc1)Nc1ccc(-n2cnc(Cl)c2Cl)c(C(F)(F)F)c1 [Cpd 217]

% Response Relative to EC80 of Capsaicin (12 μM) [1]: 113%
Ki [2]: 0.461 µM
h Binding % I (1 μM) [2]: 61%
SMILES: CC(C)(C)c1csc(CCC(=O)Nc2ccc(-c3ccncc3)cc2)c1 [Cpd 138]

IC50 [1]: 0.171 µM
inhibition at 1 µM [1, 4]: 92%
Ki [2]: 0.0416 µM
SMILES: O=C(/C=C/c1ccc(SC(F)(F)F)cc1)Nc1ccc(-n2cnc(Cl)c2Cl)c(C(F)(F)F)c1 [Cpd 228]

Emax at 12 µM [1]: 119%
EC50 [1]: 0.018 µM
Ki [2]: 0.168 µM
inhibition at 1 µM [2]: 61%
SMILES: CC(C)(C)c1ccc(CCC(=O)Nc2ccc(-c3ccncc3)cc2)cc1 [Cpd 111, 3-(4-tert-butyl-phenyl)-N-(4-pyridin-4-yl-phenyl)-propionamide]

% Response Relative to EC80 of Capsaicin (12 μM) [1]: 67%
h % I (10 μM) [1, 4]: 40%
Ki [2]: 0.05 µM
h Binding % I (1 μM) [2]: 89%
SMILES: CC(C)(C)c1ccc(CCC(=O)Nc2ccc(-c3ccccc3O)cc2)cc1 [Cpd 10]

% Response Relative to EC80 of Capsaicin (12 μM) [1]: 47%
h Binding % I (1 μM) [2]: 36%
SMILES: CC(C)(C)c1ccc(CCC(=O)Nc2ccc(-c3cccc(C(F)(F)F)c3)cc2)cc1 [Cpd 12]

h % I (10 μM) [1, 4]: 20%
h Binding % I (1 μM) [2]: 1%
SMILES: CC(C)(C)c1ccc(CCC(=O)Nc2ccccc2-c2cccc(CO)c2)cc1 [Cpd 19]

IC50 [1]: 0.896 µM
inhibition at 5 µM [1, 3]: 100%
Ki [2]: 5.35 µM
SMILES: O=C(CCc1ccccc1)Nc1ccc(-c2ccncc2)c(C(F)(F)F)c1 [Cpd 252]

Emax at 12 µM [1]: 84%
Ki [2]: 0.541 µM
inhibition at 1 µM [2]: 52%
SMILES: CC(C)(C)c1ccc(CCC(=O)Nc2ccc(-c3cccc(O)c3)cc2F)cc1 [Cpd 60]

Emax at 12 µM [1]: 69%
Ki [2]: 0.184 µM
inhibition at 1 µM [2]: 66%
SMILES: CC(=O)Nc1cccc(-c2ccc(NC(=O)CCc3ccc(C(C)(C)C)cc3)cc2C)c1 [Cpd 55]

IC50 [1]: 0.0972 µM
inhibition at 5 µM [1, 3]: 101%
Ki [2]: 0.0199 µM
SMILES: O=C(CCc1ccc(C(F)(F)F)cc1)Nc1ccc(-n2cnc(Cl)c2Cl)c(C(F)(F)F)c1 [Cpd 218]

inhibition at 5 µM [1, 3]: 93%
Ki [2]: 0.391 µM
SMILES: Cc1cc(NC(=O)CCc2ccc(C(C)(C)C)cc2)cnc1-c1cccc([N+](=O)[O-])c1 [Cpd 260]

h % I (10 μM) [1, 4]: 5%
h Binding % I (1 μM) [2]: 1%
SMILES: CC(C)(C)c1ccc(CCC(=O)Nc2ccc(-c3cccc(O)c3)cc2CO)cc1 [Cpd 71]

Emax at 12 µM [1]: 104%
EC50 [1]: 1.66 µM
inhibition at 1 µM [2]: 23%
SMILES: CC(C)(C)c1ccc(CCC(=O)Nc2ccc(-c3cccc(CN)c3)cc2)cc1 [Cpd 43]

Emax at 12 µM [1]: 95%
Ki [2]: 0.0109 µM
inhibition at 1 µM [2]: 101%
SMILES: CC(C)(C)c1ccc(CCC(=O)Nc2ccc(-c3ccc(O)cc3)nc2)cc1 [Cpd 133]

IC50 [1]: 0.038 µM
inhibition at 1 µM [1, 4]: 100%
Ki [2]: 0.0444 µM
SMILES: Cc1cn(-c2ccc(NC(=O)/C=C/c3ccc(S(=O)(=O)C(F)(F)F)cc3)cc2C(F)(F)F)cn1 [Cpd 205, trans-N-[4-(4-Methyl-imidazol-1-yl)-3-trifluoromethyl-phenyl]-3-(4-trifluoromethanesulfonyl-phenyl)-acrylamide]

IC50 [1]: 0.49 µM
inhibition at 10 µM [1, 4]: 101%
Ki [2]: 0.0107 µM
inhibition at 1 µM [2]: 103%
SMILES: Cc1cc(NC(=O)CCc2ccc(C(C)(C)C)cc2)ccc1-c1cccc(O)c1 [Cpd 59, 3-(4-tert-butyl-phenyl)-N-(3′-hydroxy-2-methyl-biphenyl-4-yl)-propionamide]

Emax at 6 µM [1]: 133%
EC50 [1]: 0.111 µM
inhibition at 1 µM [1, 4]: 84%
Ki [2]: 0.089 µM
SMILES: CC(C)(C)c1ccc(CCC(=O)Nc2ccc(-c3ccccc3O)c(CO)c2)cc1 [Cpd 92]
